Measured values reported in PubChem BioAssay AID1963969 (Molecular Pharmacology Branch, DTP, NCI, 2024).

System: 817829-284-R-J1-PDC multi-cell spheroid viability
Assay: Anticancer human tumor 817829-284-R-J1-PDC patient-derived colon adenocarcinoma cell line growth inhibition [PI3K]
Conditions: for IC50: curve of first compound; for viability, T/C: stronger effect = lower value; active means viability on the fitted dose curve at most 10% of control; inactive means the rest
How it was run: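 Viability of mixed-cell spheroids was determined after exposure to pairwise combinations, one partner being inavolisib, alpelisib, duvelisib or copanlisib. Highest tested concentration matched clinical Cmax where known and 10 microM where not, descending in half-log steps.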

[1] = second compound 0.0316 µM, first compound 0.0316 µM
[2] = second compound 0.0316 µM, first compound 0.1 µM
[3] = second compound 0.0316 µM, first compound 0.316 µM
[4] = second compound 0.0316 µM, first compound 1 µM
[5] = second compound 0.0316 µM, first compound 3.16 µM
[6] = second compound 0.0316 µM, first compound 10 µM
[7] = second compound 0.1 µM, first compound 0.0316 µM
[8] = second compound 0.1 µM, first compound 0.1 µM
[9] = second compound 0.1 µM, first compound 0.316 µM
[10] = second compound 0.1 µM, first compound 1 µM
[11] = second compound 0.1 µM, first compound 3.16 µM
[12] = second compound 0.1 µM, first compound 10 µM
[13] = second compound 0.316 µM, first compound 0.0316 µM
[14] = second compound 0.316 µM, first compound 0.1 µM
[15] = second compound 0.316 µM, first compound 0.316 µM
[16] = second compound 0.316 µM, first compound 1 µM
[17] = second compound 0.316 µM, first compound 3.16 µM
[18] = second compound 0.316 µM, first compound 10 µM
[19] = second compound 1 µM, first compound 0.0316 µM
[20] = second compound 1 µM, first compound 0.1 µM
[21] = second compound 1 µM, first compound 0.316 µM
[22] = second compound 1 µM, first compound 1 µM
[23] = second compound 1 µM, first compound 3.16 µM
[24] = second compound 1 µM, first compound 10 µM
[25] = second compound 3.16 µM, first compound 0.0316 µM
[26] = second compound 3.16 µM, first compound 0.1 µM
[27] = second compound 3.16 µM, first compound 0.316 µM
[28] = second compound 3.16 µM, first compound 1 µM
[29] = second compound 3.16 µM, first compound 3.16 µM
[30] = second compound 3.16 µM, first compound 10 µM
[31] = second compound 10 µM, first compound 0.0316 µM
[32] = second compound 10 µM, first compound 0.1 µM
[33] = second compound 10 µM, first compound 0.316 µM
[34] = second compound 10 µM, first compound 1 µM
[35] = second compound 10 µM, first compound 3.16 µM
[36] = second compound 10 µM, first compound 10 µM
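Further: spheroids exposed to agents for seven days before readout.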
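Wherever viability, T/C is given: percent of vehicle DMSO control viability which is 100%.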

CNC(=O)c1ccc(N2C(=S)N(c3ccc(C#N)c(C(F)(F)F)c3)C(=O)C2(C)C)cc1F + Cc1nc(NC(=O)N2CCCC2C(N)=O)sc1-c1ccnc(C(C)(C)C(F)(F)F)c1
inactive: viability, T/C [1] 95.7% | viability, T/C [2] 102% | viability, T/C [3] 96.2% | viability, T/C [4] 90.2% | viability, T/C [5] 67.6% | viability, T/C [6] 84.6% | viability, T/C [7] 69% | viability, T/C [8] 77.8% | viability, T/C [9] 87.4% | viability, T/C [10] 69.3% | viability, T/C [11] 56.4% | viability, T/C [12] 68.2% | viability, T/C [13] 106% | viability, T/C [14] 85.5% | viability, T/C [15] 68.8% | viability, T/C [16] 70.6% | viability, T/C [17] 77.2% | viability, T/C [18] 63.3% | viability, T/C [19] 60% | viability, T/C [20] 73.6% | viability, T/C [21] 68.7% | viability, T/C [22] 107% | viability, T/C [23] 63.3% | viability, T/C [24] 43.8% | viability, T/C [25] 67.3% | viability, T/C [26] 77.8% | viability, T/C [27] 81.8% | viability, T/C [28] 58.3% | viability, T/C [29] 48.5% | viability, T/C [30] 34.5% | viability, T/C [31] 60% | viability, T/C [32] 70% | viability, T/C [33] 54.8% | viability, T/C [34] 52.6% | viability, T/C [35] 38.3% | viability, T/C [36] 22.9%
1150 nM: IC50 (second compound 10 µM)
6960 nM: IC50 (second compound 1 µM)
2350 nM: IC50 (second compound 3.16 µM)
> 10000 nM: IC50 (second compound 0.0316 µM) | IC50 (second compound 0.1 µM) | IC50 (second compound 0.316 µM)

C[C@@H](NC(=O)c1ncnc(N)c1Cl)c1ncc(C(=O)Nc2cc(C(F)(F)F)c(Cl)cn2)s1 + Cc1nc(NC(=O)N2CCCC2C(N)=O)sc1-c1ccnc(C(C)(C)C(F)(F)F)c1
inactive: viability, T/C [1] 106% | viability, T/C [2] 74.4% | viability, T/C [3] 71.9% | viability, T/C [4] 68.5% | viability, T/C [5] 96.3% | viability, T/C [6] 88.2% | viability, T/C [7] 77.5% | viability, T/C [8] 86.3% | viability, T/C [9] 81.1% | viability, T/C [10] 72.4% | viability, T/C [11] 70.7% | viability, T/C [12] 83% | viability, T/C [13] 79.8% | viability, T/C [14] 85.9% | viability, T/C [15] 61.9% | viability, T/C [16] 59.4% | viability, T/C [17] 80.7% | viability, T/C [18] 65.6% | viability, T/C [19] 56% | viability, T/C [20] 86.5% | viability, T/C [21] 74.9% | viability, T/C [22] 96.6% | viability, T/C [23] 61.9% | viability, T/C [24] 93.9% | viability, T/C [25] 73.8% | viability, T/C [26] 53.8% | viability, T/C [27] 70.5% | viability, T/C [28] 84.8% | viability, T/C [29] 102% | viability, T/C [30] 74.5% | viability, T/C [31] 45.7% | viability, T/C [32] 31.2% | viability, T/C [33] 61.7% | viability, T/C [34] 54.3% | viability, T/C [35] 94.9% | viability, T/C [36] 42.3%
> 10000 nM: IC50 (second compound 0.0316 µM) | IC50 (second compound 0.1 µM) | IC50 (second compound 0.316 µM) | IC50 (second compound 1 µM) | IC50 (second compound 3.16 µM)
< 31.6 nM: IC50 (second compound 10 µM)

Cn1ncnc1[C@H]1c2n[nH]c(=O)c3cc(F)cc(c23)N[C@@H]1c1ccc(F)cc1 + Cc1nc(NC(=O)N2CCCC2C(N)=O)sc1-c1ccnc(C(C)(C)C(F)(F)F)c1
62.7 nM: IC50 (second compound 0.1 µM)
25.1 nM: IC50 (second compound 0.0316 µM)
11.9 nM: IC50 (second compound 10 µM)
41.2 nM: IC50 (second compound 1 µM)
16.3 nM: IC50 (second compound 3.16 µM)
7.2 nM: IC50 (second compound 0.316 µM)
inactive: viability, T/C (second compound 0.0316 µM, first compound 0.000316 µM) 60.7% | viability, T/C (second compound 0.0316 µM, first compound 0.001 µM) 77% | viability, T/C (second compound 0.0316 µM, first compound 0.00316 µM) 72.5% | viability, T/C (second compound 0.0316 µM, first compound 0.01 µM) 55.1% | viability, T/C [1] 49.4% | viability, T/C [2] 48% | viability, T/C (second compound 0.1 µM, first compound 0.000316 µM) 78.6% | viability, T/C (second compound 0.1 µM, first compound 0.001 µM) 72.2% | viability, T/C (second compound 0.1 µM, first compound 0.00316 µM) 69.1% | viability, T/C (second compound 0.1 µM, first compound 0.01 µM) 59.6% | viability, T/C [7] 53.9% | viability, T/C [8] 47.5% | viability, T/C (second compound 0.316 µM, first compound 0.000316 µM) 84.8% | viability, T/C (second compound 0.316 µM, first compound 0.001 µM) 87.2% | viability, T/C (second compound 0.316 µM, first compound 0.00316 µM) 55.5% | viability, T/C (second compound 0.316 µM, first compound 0.01 µM) 55.8% | viability, T/C [13] 37.2% | viability, T/C [14] 50.2% | viability, T/C (second compound 1 µM, first compound 0.000316 µM) 59% | viability, T/C (second compound 1 µM, first compound 0.001 µM) 52.1% | viability, T/C (second compound 1 µM, first compound 0.00316 µM) 54.5% | viability, T/C (second compound 1 µM, first compound 0.01 µM) 43.3% | viability, T/C [19] 70.2% | viability, T/C [20] 30.8% | viability, T/C (second compound 3.16 µM, first compound 0.000316 µM) 48.5% | viability, T/C (second compound 3.16 µM, first compound 0.001 µM) 72.7% | viability, T/C (second compound 3.16 µM, first compound 0.00316 µM) 60.7% | viability, T/C (second compound 3.16 µM, first compound 0.01 µM) 62.6% | viability, T/C [25] 33.1% | viability, T/C [26] 36.8% | viability, T/C (second compound 10 µM, first compound 0.000316 µM) 49.9% | viability, T/C (second compound 10 µM, first compound 0.001 µM) 54.9% | viability, T/C (second compound 10 µM, first compound 0.00316 µM) 60.7% | viability, T/C (second compound 10 µM, first compound 0.01 µM) 40.6% | viability, T/C [31] 50.8% | viability, T/C [32] 38.2%
